Data as given in patent US8936787B2, “Peptides promoting lipid efflux” (The United States of America as represented by the …, priority 2008, dated 2015).
Entries after “also recorded” stand apart in the source; their conditions may differ. Square brackets hold non-standard residues; d marks the D form. Ends that are not written are not given here. Peptide text beside a SMILES is read from it.

Key:
[1] = system: HeLa cells stably transfected with human ABCA1 cDNA (ABCA1 cells); assay: Cholesterol and phospholipid efflux from ABCA1 cells; assay type: cell-based; settings: for cholesterol efflux from ABCA1 cells to detergent: sublytic concentration (taurodeoxycholate 0.02%, 1 hour)
Protocol: (§1) Percentage efflux was calculated after subtracting the radioactive counts in the blank media (αMEM plus 1 mg/ml of BSA), and expressed as the percent of total radioactive counts removed from the cells during the efflux period.
(§2) Cell fixation was performed by a 10 minute treatment with 3% paraformaldehyde in phosphate buffered saline (PBS), followed by three washes with blank media. Lactate dehydrogenase (LDH) release from cells into the media was measured enzymatically (Roche Diagnostics, Indianapolis, Ind.) and expressed, after subtraction of LDH released into blank media, as the percentage of total cell LDH. Total cell LDH was determined after cell solubilization with 1% Triton X-100.

ABCA1 cells [2] = assay: LDH release from ABCA1 cells; assay type: cell-based, human; settings: 40 μg/ml for 18 hours
Protocol: as §2
(§3) The microsolubilization of the plasma membrane of cells could, therefore, be potentially cytotoxic, but no morphologic effect was observed on the cells after incubation with the peptides or apoA-I, during the efflux experiments. Incubation of the cells with L-37pA and D-37pA at the maximum concentration and time used for the efflux studies (40 μg/ml for 18 hours) did, however, consistently result in the release of a small amount of LDH from both cell lines (control cells: L-37pA (6.1%±0.2), D-37pA (6.6%±0.1); ABCA1 cells: L-37pA (4.3%±0.04), D-37pA (5.7%±0.1)).

control cells = assay: LDH release from control cells; assay type: cell-based; settings: 40 μg/ml for 18 hours
Protocol: as §2, §3

[3] = system: HeLa cells transfected with only a hygromycin-resistant control plasmid (control cells); assay: Cholesterol and phospholipid efflux from control cells; assay type: cell-based; settings: for lipid (cholesterol and phospholipid) efflux from control cells: 18 hours
Protocol: as §1, §2

red blood cells = assay: Red blood cell hemolysis assay; assay type: cell-based; settings: 1 hour at 37° C., maximum dose tested
Protocol: Red blood cells were incubated with the indicated concentration of the peptides for 1 hour at 37° C. Results are expressed as the mean of triplicates ±1 SD.
Approximately 25% of the red blood cells were lysed after 1 hour at the maximum dose tested (FIG. 9). Overall, the modified peptides containing the Ala substitutions were less cytotoxic, and the degree of cytotoxicity closely correlated with the number of Ala substitutions.

Normal skin fibroblasts = assay: Cholesterol efflux from normal skin fibroblasts; assay type: cell-based; settings: 10 μg/ml, 18 hour
Protocol: (§4) FIG. 5 is a graph illustrating ABCA1-independent efflux of cholesterol from Tangier disease fibroblasts. Normal skin fibroblasts (open bars) and Tangier disease skin fibroblasts (solid bars) were examined for their ability to efflux cholesterol over an 18 hour period when treated with 10 μg/ml apoA-I (A), 10 μg/ml L-37pA (L), and 10 μg/ml D-37pA (D). Results are expressed as the mean of triplicates ±1 SD.
(§5) In order to confirm that the residual lipid efflux from the control cells to L-37pA and D-37pA (see FIG. 1) was not due to a low level of endogenous ABCA1, a Tangier disease fibroblast cell line with a truncated non-functional ABCA1 transporter (Remaley et al., Proc. Natl. Acad. Sci. USA 96:12685-12690, 1999) was evaluated for lipid efflux (FIG. 5).

[4] = system: Tangier disease fibroblast cell line with a truncated non-functional ABCA1 transporter; assay: Cholesterol efflux from Tangier disease fibroblasts; assay type: cell-based; settings: 10 μg/ml, 18 hour
Protocol: as §4, §5

ABCA1 cells [5] = assay: Competitive binding of radiolabeled L-37pA to ABCA1 cells; design: species or system human; settings: 8 μM, the maximum concentration tested; 4° C.
Protocol: FIGS. 7A-7B are a pair of graphs illustrating the competitive binding of L-37pA peptide to ABCA1 transfected cells and control cells. ABCA1 cells (FIG. 7A) and control cells (FIG. 7B) were incubated for 3 hours at 4° C. with the indicated concentration of the competitor proteins [L-37pA (triangle), D-37pA (open square), apoA-I (closed circle), L2D-37pA (star), and L3D-37pA (open circle)] and were then washed and incubated for 1 hour at 4° C. with 1 μg/ml of radiolabeled L-37pA peptide. Results are expressed as the mean of triplicates ±1 SD.
The L-37pA peptide was labeled with ^125I using iodine monochloride. Confluent cells grown on 12-well plates were incubated for 3 hours at 4° C. with the indicated concentration of the unlabeled competitor peptide in αMEM media plus 10 mg/ml of BSA (FIG. 7). […] Cells were washed three times, and cell bound counts were determined after solubilization with 0.1 N NaOH.
A two-step sequential competitive binding assay was performed in order to prevent any potentially interfering interaction of the radiolabeled peptide with the competitor proteins (Mendez et al., J. Clin. Invest. 94:1698-1705, 1994). The cells were first incubated with the competitor proteins for 3 hours, washed, and then the cell binding of the radiolabeled L-37 peptide was measured. […]

[6] = 10 μg/ml, 30 hour efflux period

C[C@H](CCC(=O)NCCC[N+](C)(C)CCCS(=O)(=O)[O-])[C@H]1CC[C@H]2[C@@H]3[C@H](O)C[C@@H]4C[C@H](O)CC[C@]4(C)[C@H]3C[C@H](O)[C@]12C [CHAPS, reference compound]
cholesterol efflux from ABCA1 cells to detergent [1]: Nearly identical results

CC(C)C[C@@H](NC(=O)[C@@H](Cc1c[nH]c2ccccc12)NC(=O)[C@H](N)CC(=O)O)C(=O)N[C@H](CCCCN)C(=O)N[C@H](C)C(=O)N[C@H](Cc1ccccc1)C(=O)N[C@H](Cc1ccc(O)cc1)C(=O)N[C@H](CC(=O)O)C(=O)N[C@H](CCCCN)C(=O)N[C@@H](C(=O)N[C@H](C)C(=O)N[C@H](CCC(=O)O)C(=O)N[C@H](CCCCN)C(=O)N[C@H](CC(C)C)C(=O)N[C@H](CCCCN)C(=O)N[C@H](CCC(=O)O)C(=O)N[C@H](C)C(=O)N[C@H](Cc1ccccc1)C(=O)N1CCC[C@@H]1C(=O)N[C@H](CC(=O)O)C(=O)N[C@H](Cc1c[nH]c2ccccc12)C(=O)N[C@H](CC(C)C)C(=O)N[C@H](CCCCN)C(=O)N[C@H](C)C(=O)N[C@H](Cc1ccccc1)C(=O)N[C@H](Cc1ccc(O)cc1)C(=O)N[C@H](CC(=O)O)C(=O)N[C@H](CCCCN)C(=O)N[C@@H](C(=O)N[C@H](C)C(=O)N[C@H](CCC(=O)O)C(=O)N[C@H](CCCCN)C(=O)N[C@H](CC(C)C)C(=O)N[C@H](CCCCN)C(=O)N[C@H](CCC(=O)O)C(=O)N[C@H](C)C(=O)N[C@H](Cc1ccccc1)C(=O)O)C(C)C)C(C)C [D-37pA] (H-[dD][dW][dL][dK][dA][dF][dY][dD][dK][dV][dA][dE][dK][dL][dK][dE][dA][dF][dP][dD][dW][dL][dK][dA][dF][dY][dD][dK][dV][dA][dE][dK][dL][dK][dE][dA][dF]-OH; N-terminus and C-terminus assumed)
release of LDH from ABCA1 cells, percentage of total cell LDH (ABCA1 cells [2]): 5.7%±0.1
release of LDH from control cells, percentage of total cell LDH (control cells): 6.6%±0.1

C[C@H](CCC(=O)NCCS(=O)(=O)O)[C@H]1CC[C@H]2[C@@H]3CC[C@@H]4C[C@H](O)CC[C@]4(C)[C@H]3C[C@H](O)[C@]12C [taurodeoxycholate, reference compound]
cholesterol efflux from control cells to detergent ([3]; taurodeoxycholate 0.02%, 1 hour): Approximately the same amount
cholesterol efflux from ABCA1 cells to detergent [1]: small amount of cholesterol efflux

DWLKAFYDKVAEKLKEAFPDWAKAAYDKAAEKAKEAA [5A]
red blood cells lysed (hemolysis) (red blood cells): no appreciable hemolysis

DWLKAFYDKVAEKLKEAFPDWLKAAYDKAAEKAKEAA [4A]
red blood cells lysed (hemolysis) (red blood cells): no appreciable hemolysis

DWLKAFYDKVAEKLKEAFPDWLKAAYDKVAEKAKEAA [3A]
red blood cells lysed (hemolysis) (red blood cells): moderate degree of hemolysis

DWLKAFYDKVAEKLKEAFPDWLKAFYDKVA EKLKEAF [37pA, reference compound]
lipid (cholesterol and phospholipid) efflux from control cells [3]: also able to mediate cholesterol efflux
lipid (cholesterol and phospholipid) efflux from ABCA1 cells ([1]; 18 hours): promoted ABCA1-mediated cholesterol efflux

DWLKAFYDKVAEKLKEAFPDWLKAFYDKVAEKAKEAA [2A]
red blood cells lysed (hemolysis) (red blood cells): moderate degree of hemolysis

DWLKAFYDKVAEKLKEAFPDWLKAFYDKVAEKAKEAF [1A]
red blood cells lysed (hemolysis) (red blood cells): moderate degree of hemolysis

DWLKAFYDKVAEKLKEAFPDWLKAFYDKVAEKLKEAF [L-37pA]
release of LDH from ABCA1 cells, percentage of total cell LDH (ABCA1 cells [2]): 4.3%±0.04
release of LDH from control cells, percentage of total cell LDH (control cells): 6.1%±0.2

NP-40 [reference compound]
cholesterol efflux from ABCA1 cells to detergent [1]: Nearly identical results

RMRITERDDFRGQMSEITDDCPSLQDRFHLTEVHSLRVLEGS (Gamma crystalline peptide.) [contains two non-amphipathic alpha helices, reference compound]
lipid (cholesterol and phospholipid) efflux from control cells [3]: completely ineffective
lipid (cholesterol and phospholipid) efflux from ABCA1 cells ([1]; 18 hours): completely ineffective

apoA-I: apolipoprotein A-I, the predominant protein constituent of HDL
cholesterol efflux from normal fibroblasts (Normal skin fibroblasts): effluxed cholesterol
cholesterol efflux from Tangier disease fibroblasts [4]: did not efflux significant amounts
cholesterol efflux from control cells over the time course [3, 6]: no significant increase above background
lipid (cholesterol and phospholipid) efflux from control cells [3]: do not efflux significant amounts; also recorded: unable
cholesterol efflux from ABCA1 cells after fixation with paraformaldehyde ([1]; 10 μg/ml, 18 hours, 3% paraformaldehyde): completely blocked
time at which cholesterol efflux from ABCA1 cells was first detectable [1, 6]: 2 h
lipid (cholesterol and phospholipid) efflux from ABCA1 cells ([1]; 18 hours): do so after transfection with ABCA1
protein concentration at which lipid efflux began to show saturation ([1]; 18 hours): ~10 µg/mL
molar concentration at which lipid efflux began to show saturation ([1]; corresponds to 10 μg/ml): 0.36 µM
binding of labeled L-37pA to ABCA1 cells blocked by competitor (ABCA1 cells [5]): approximately 30%
